Data on two molecules can be found in US8575214B2, “MGlu 2/3 agonists” (Eli Lilly and Company, priority 2012, dated 2013).

One may read the IC50 as the midpoint of a concentration-inhibition curve. One may read the inhibition as the change of the read-out against control, counted positive when it falls. As a reminder, the ED50 is the dose at which the effect has come halfway, by size or by number of responders.

For one data set, the target named is T1, hPepT1 (Homo sapiens, UniProt P46059).
T1 construct: expressed in transfected cells; host or cells: HeLa cells (ATCC), transient transfection with PepT1 DNA using FuGene6
T1 sequence (P46059 1-708): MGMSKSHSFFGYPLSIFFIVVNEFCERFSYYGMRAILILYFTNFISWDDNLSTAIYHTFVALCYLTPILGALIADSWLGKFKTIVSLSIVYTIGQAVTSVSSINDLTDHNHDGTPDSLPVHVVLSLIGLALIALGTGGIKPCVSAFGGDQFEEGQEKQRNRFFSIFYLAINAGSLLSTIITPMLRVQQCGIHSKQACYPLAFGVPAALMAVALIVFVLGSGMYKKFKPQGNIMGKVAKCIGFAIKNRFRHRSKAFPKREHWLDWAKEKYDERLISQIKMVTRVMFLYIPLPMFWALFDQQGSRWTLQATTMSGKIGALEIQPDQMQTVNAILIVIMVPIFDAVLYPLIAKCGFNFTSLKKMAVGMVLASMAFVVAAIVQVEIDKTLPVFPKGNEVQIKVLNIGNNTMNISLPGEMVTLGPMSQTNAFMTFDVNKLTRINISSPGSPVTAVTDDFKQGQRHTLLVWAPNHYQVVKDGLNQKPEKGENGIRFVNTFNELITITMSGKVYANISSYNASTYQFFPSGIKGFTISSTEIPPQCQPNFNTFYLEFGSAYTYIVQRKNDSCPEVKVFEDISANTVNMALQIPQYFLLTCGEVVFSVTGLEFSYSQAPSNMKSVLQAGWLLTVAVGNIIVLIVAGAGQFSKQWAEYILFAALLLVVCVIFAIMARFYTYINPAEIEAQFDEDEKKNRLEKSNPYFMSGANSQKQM
The data set is described as follows: In vitro PepT1 GlySar inhibition screen and IC50 determination. Type of data set: cell-based. To be noted: PepT1 transiently transfected HeLa cells; for inhibition at 5000 µM: pH 6.0, 3 minutes, read-out: hPepT1 [3H]Gly-Sar uptake inhibition at 5 mM. The method, then:
HeLa cells, […], (American Type Culture Collection) are grown in Hyclone Medium (Invitrogen, Cat# SH30243) containing 10% fetal bovine serum (FBS), 0.1 mM non essential amino acids (NEAA), and 100 units/mL penicillin with 100 μg/mL streptomycin at 37° C. in a 5% CO2 humidified atmosphere. The cell line is used for up to 40 passages and then discarded. Frozen cells in 1 ml vials are thawed in water bath for 1-2 minutes and added to 5 mL of cell medium at 37° C. Each of the T-flasks is provided with 8.5 mL of the fresh medium and 1.5 mL of the cell stock. Cells are passaged twice during a week. This is achieved by rinsing the flasks with 10 mL of phosphate buffered saline-ethylene diaminetetra acetic acid (PBS-EDTA), adding 2 mL of trypsin for 2-5 minutes, to detach the cells, and adding 8 mL of fresh medium to inhibit further activity of trypsin. Each new flask receives a combination of 8.5 mL of fresh medium and 1.5 mL of cell stock, in order to obtain 1:6 cell dilution. Cells are incubated at 37° C., until ready for the uptake study.
Cells that are 70-80% confluent in the T-flasks are plated 1 day prior to the transfection procedure. The flask with the cell stock is treated with PBS-EDTA and trypsin to detach the cells, and transfection medium is used from this point. Transfection medium consists of Dulbecco's Modified Eagle Medium (DMEM)+NEAA. To each well, 0.5 mL of the cell mixture is added (1.3×10^5 is the desired cell concentration) and the cells are incubated at 37° C. overnight. Twenty four hours before the assay, cells are transfected with PEPT1. Transfection mixture is prepared by mixing 600 μL of serum free transfection medium, 18 μL of FuGene6 (Roche Diagnostics), and 11 μg of the PepT1 DNA. The transfection reagent-DNA complex is incubated for 20 minutes and 24 μL of the reagent-DNA complex is added to each well.
J. Pharm. Exper Ther. 310:437-445). […] Uptake media consists of 140 mM NaCl, 5.4 mM KCl, 1.8 mM CaCl2, 0.8 mM MgSO4, 5 mM Glucose, 25 mM tris(hydroxymethyl)aminomethane buffer (TRIS). The solution is then brought to pH 6.0 using 2-(N-morpholino)ethanesulfonic acid. The incubation volume is 500 μL and is performed at room temperature for 3 minutes. To stop the uptake at the conclusion of the incubation time, the uptake media is aspirated off of the cell monolayer and 500 μL of ice cold PBS added to the well. The cells are washed 3 times with 500 μL of room temperature PBS without Ca^+2 and Mg^+2. The cells are then lysed with 300 μL of 1% Triton X100 H2O solution. […] A no inhibitor control is established and the percent inhibition of each prodrug is calculated with respect to this control.
The incubation and sampling procedures are exactly the same as the PepT1 screen described above.

Data set [1] deals with male, Sprague-Dawley rats. The data set is described as follows: Reversal of phencyclidine (PCP)-induced hyperlocomotor activity in rats. Type of data set: in vivo, rat. Conditions: Rattus norvegicus; p.o., overnight fasted rats, 4 hours prior to 5 mg/kg PCP. An excerpt:
Motor activity is monitored by placing individual male, Sprague-Dawley (Harlan, Indianapolis, Ind.) rats in transparent, plastic shoe-box cages of the dimensions 45×25×20 cm, with 1 cm depth of wood chips as bedding, and a metal grill on top of the cage. Motor monitors (Kinder Scientific) consist of a rectangular rack of 12 photobeams arranged in an 8×4 formation, (or a high density grouping of 22 in a 15×7 pattern) at a height of 5 cm, with a second rack (for measuring rearing behaviors) at a height of 15 cm. The shoe box cage is placed inside of these racks, with the racks on a 3 foot high tabletop in an isolated room. A compound of the invention (active) is dosed (intraperitoneal route) within a range of 0.3-10 mg/kg, 30 minutes prior to a 5 mg/kg challenge dose of phencyclidine (PCP). A compound of the invention (prodrug) is orally dosed within a range of 0.3-30 mg/kg, in overnight fasted rats, 4 hours prior to a 5 mg/kg challenge dose of PCP. On the test day, rats are placed in the test cage and allowed to acclimate for 30 minutes prior to PCP challenge; rats are monitored for an additional 60 minutes following PCP administration.
Data analysis and ED50 calculations are conducted using GraphPad Prism (San Diego, Calif. USA). Power analyses have determined that 8-10 rats per group are needed to have appropriate statistical power for detecting treatment differences (power=0.8). A one-way analysis of variance (ANOVA) with a post-hoc Dunnett's multiple comparison test is conducted on the total 60 minute locomotor activity. ED50 calculations are performed using non-linear regression curve fitting on percent reversal transformed data for each dose.

For data set [2] the following is noted: 1 h, 10 µM, pH 7.4.
Description: Frozen human duodenum intestinal homogenates (1:2 tissue:buffer ratio using 100 mM Tris Phosphate buffer, pH 7.4) are obtained from Celsius In Vitro Technologies (Baltimore, Md.) that were both phenylmethylsulphonylfluoride (PMSF) and EDTA free.
All original tissue collections are performed at 4° C. and immediately frozen at −70° C. Human intestinal homogenates are thawed and diluted to a final protein concentration of 0.5 mg/mL in 100 mM PBS buffer, pH 7.4 immediately prior to the incubations.
Incubations are conducted in 96-well plates and all prodrugs are run in duplicate on each day. Stock prodrug solutions are prepared in water at a concentration of 1 mM. A 200 μL aliquot of 0.5 mg/mL intestinal homogenate and 196 μL of 100 mM PBS buffer are placed in a 96-well plate in a 37° C. water bath. Using a 96-well pipettor, 4 μL of the 1 mM prodrug solution is transferred into the homogenate. Immediately after addition of the prodrug (time zero) and after 1 hour incubation, 50 μL samples of the incubation mixture are removed using an automated disposable simultaneous 96 well pipettor and added directly to 200 μL of methanol quench solution containing 100 ng/mL of Internal Standard. The samples are then centrifuged at 3500 rpm for 5 minutes at 10° C. The supernatant (200 μL) is transferred to a final 96 well PCR plate and sealed for analysis by LC/MS/MS.
Concentrations of hydrolyzed active metabolite in the incubation mixtures are determined using LC/MS/MS detection on a Sciex API 4000 quadrapole mass spectrometer with Analyst version 1.4.2, TurbolonSpray, positive ionization, and Selected Reaction Monitoring (SRM). […]
Averages and standard deviations are calculated using Microsoft® Office Excel® 2007. Amount of hydrolysis is determined as a molar percentage of active metabolite formed relative to prodrug concentration added.

Take `CSCC[C@H](N)C(=O)N[C@@]1(C(=O)O)CC2(CC2)[C@H]2[C@H](C(=O)O)[C@H]21.Cl` [Example 6, (1S,2S,5R,6S)-2-[[(2S)-2-Amino-4-methylsulfanyl-butanoyl]amino]spiro[bi-cyclo[3.1.0]hexane-4,1′-cyclopropane]-2,6-dicarboxylic acid hydrochloride]: the half-inhibitory concentration (IC50) on hPepT1 (0.0625 to 25 mM, read-out: hPepT1 [3H]Gly-Sar uptake inhibition IC50) turned out to be 250 µM. For the same molecule, the inhibition at 5000 µM at hPepT1 came to 87%. Further, in data set [1], the median effective dose (ED50) came to 4.31 mg/kg. Besides, the “human intestinal hydrolysis relative to Internal Prodrug A” value in data set [2] is listed as 44%.

Regarding `Cl.NCC(=O)N[C@@]1(C(=O)O)CC2(CC2)[C@H]2[C@H](C(=O)O)[C@H]21` [Example 7, (1S,2S,5R,6S)-2-[(2-Aminoacetyl)amino]spiro[bi-cyclo[3.1.0]hexane-4,1′-cyclo-propane]-2,6-dicarboxylic acid hydrochloride], the inhibition at 5000 µM at hPepT1 was 78%. In data set [2], the “human intestinal hydrolysis relative to Internal Prodrug A” value is 34%.
